Measured values from patent publication US8282952B2, “Insect attractant” (Activetrad (Proprietary) Limited, priority 2007, dated 2012).

Experiments:
Female medflies [1] = test: Delta trap catches in temperature controlled room, released female medflies; settings: for effect on medfly attraction when added to NATC 1%: Experiment 22
Female medflies [2] = test: Delta trap catches in orchards, released female medflies; format: in vivo, Ceratitis capitata

Cc1cnc(C)c(C)n1 [2,3,5-Trimethyl pyrazine]
effect on medfly attraction when added to NATC 1% (Female medflies [1]): suppressed medfly attraction

COc1cccc(C(N)=O)c1 [3-Methoxy benzamide]
effect on medfly attraction when added to NATC 1% (Female medflies [1]): suppressed medfly attraction

CC(=O)OCC[N+](C)(C)C.[Cl-] [Acetyl choline chloride]
times more attractive than the tri-ethanolamine mixtures (Female medflies [1]; as amine in the NATC/amine/NH4Ac/Molasses mixture): about 3 times
more medflies attracted than Choline chloride (number) (Female medflies [1]; in vivo): 284.2
more medflies attracted than Choline chloride (percent) (Female medflies [1]; in vivo): 93%

CC(=O)O.N [Ammonium acetate]
attracting partner for the NATC-0.5%+TEA-0.5% combination compared with Maltol 0.5% (Female medflies [1]; in vivo): stronger attracting partner
increase of trap catches by addition to the NATC-1%+TEA-1% mixture (Female medflies [1]; in vivo): 272.5%

CN(C)Cc1c[nH]c2ccccc12 [Gramine]
effect on medfly attraction when added to NATC 1% (Female medflies [1]): suppressed medfly attraction

CCOC(=O)CC(SP(=S)(OC)OC)C(=O)OCC (centres unmarked) [Malathion]
times more female medflies caught with poison than without it (Female medflies [2]; in vivo): ~1.5 times

C=C(C)[C@H]1Cc2c(ccc3c2O[C@@H]2COc4cc(OC)c(OC)cc4[C@@H]2C3=O)O1 [Rotenone]
effect of the bait poison combined with NATC in YP on female medfly trap catches (Female medflies [2]; Experiment 7, 0.5% poison added to NATC 1% in YP vs NATC 1% in YP alone): small differences

CC(=O)O [acetic acid]
effect of addition on medfly trap catches with TEA (Female medflies [1]; Experiment 14, added to NATC + TEA): seems to decrease
